Measured values reported in ChEMBL document CHEMBL5108066, “Structure-Guided Discovery of Potent Antifungals that Prevent Ras Signaling by Inhibiting Protein Farnesyltransferase” (J Med Chem, 2022).
≈ marks a conversion by molar mass, not a printed value. Calls of active or inactive are those of the source. The calls are words filed in the database; no cut-off is given here.

How the values were obtained:
[1] = Inhibition of Cryptococcus neoformans farnesyltransferase assessed as inhibition of farnesylation of dansyl-GCVVM peptide using fluorescent peptide dansyl-GCVVM and 1uM farnesyl diphosphate as substrate by fluorescence assay
[2] = tested on: Cryptococcus neoformans; test: Antifungal activity against Cryptococcus neoformans H99 assessed as decrease in cell viability by measuring metabolic activity incubated for 72 hrs by alamar blue staining based broth dilution method; type: functional
[3] = tested on: Cryptococcus neoformans; test: Uncompetitive type inhibition of Cryptococcus neoformans farnesyltransferase assessed as inhibition constant using farnesyl diphosphate and fluorescent peptide dansyl-GCVVM as substrate by steady-state kinetic analysis
[4] = tested on: Cryptococcus neoformans; test: Uncompetitive type inhibition of Cryptococcus neoformans farnesyltransferase assessed as inhibition constant using FPP in presence of 10 mM phosphate and fluorescent peptide dansyl-GCVVM as substrate by steady-state kinetic analysis
[5] = Inhibition of rat farnesyltransferase assessed as inhibition of farnesylation of dansyl-GCVVM peptide using fluorescent peptide dansyl-GCVVM and 1uM farnesyl diphosphate as substrate by fluorescence assay
[6] = Cytotoxicity against mouse J774.A1 cells assessed as inhibition of cell viability measured at 24 hrs by AlamarBlue staining based cell viability assay; type: toxicity; conditions: read-out: MIC
[7] = tested on: Cryptococcus neoformans; test: Inhibition of biofilm formation in Cryptococcus neoformans H99 incubated for 3 days by alamar blue staining based microtiter plate reader assay; type: functional; conditions: H99, 72 h, time 3 day
[8] = tested on: Cryptococcus neoformans; test: Fungicidal activity against Cryptococcus neoformans H99 assessed as reduction in colonies incubated for 48 hrs by disk diffusion method; type: functional, organism-based
[9] = tested on: Schizosaccharomyces pombe; test: Antifungal activity against Schizosaccharomyces pombe efflux-defective strain MJ-1682 assessed as inhibition of fungal growth by broth microdilution method; type: functional

Compound	IC50 [1] [nM]	MIC [2] [µM]	other results
N#Cc1ccc(Cn2cncc2CN2CCN(c3cccc(OC(F)(F)F)c3)C(=O)C2)cc1	2700	50 (≈ 22.8 µg/mL)	–
CCCC[C@H]1CN(c2cccc(OC(F)(F)F)c2)C(=O)CN1Cc1cncn1Cc1ccc(C#N)cc1	340	12 (≈ 6.14 µg/mL)	–
CCCC[C@H]1CN(c2cccc(Cl)c2)C(=O)CN1Cc1cncn1Cc1ccc(Br)cc1	1100	12 (≈ 6.19 µg/mL)	–
N#Cc1ccc(Cn2cncc2CN2CCN(c3cccc(OC(F)(F)F)c3)C(=O)C2)cc1Oc1ccccc1	2600	50 (≈ 27.4 µg/mL)	–
CCCC[C@H]1CN(c2cccc(OC(F)(F)F)c2)C(=O)CN1Cc1cncn1Cc1ccc(C#N)c(F)c1	40	50 (≈ 26.5 µg/mL)	K [3]: 4.9 nM; K [4]: 4.2 nM
N#Cc1cc(Cn2cncc2CN2CCN(c3cccc(OC(F)(F)F)c3)C(=O)C2)ccc1F	550	50 (≈ 23.7 µg/mL)	–
CCCC[C@H]1CN(c2cccc(C)c2C)C(=O)CN1Cc1cncn1Cc1ccc(C#N)cc1	2200	50 (≈ 22.8 µg/mL)	–
N#Cc1ccc(Cn2cncc2CN2CCN(c3cccc(OC(F)(F)F)c3)C(=O)C2)cc1F	120	50 (≈ 23.7 µg/mL)	–
CCCC[C@H]1CN(c2cccc(Cl)c2)C(=O)CN1Cc1cncn1Cc1ccc(Cl)cc1	1600	25 (≈ 11.8 µg/mL)	–
CCCC[C@H]1CN(c2cccc(OC(F)(F)F)c2)C(=O)CN1Cc1cncn1Cc1ccc(F)c(C#N)c1	180	50 (≈ 26.5 µg/mL)	–
CCCC[C@H]1CN(c2cccc(OC(F)(F)F)c2)C(=O)CN1Cc1cncn1Cc1cccc(C#N)c1	740	50 (≈ 25.6 µg/mL)	–
CCCC[C@H]1CN(c2ccccc2)C(=O)CN1Cc1cncn1Cc1ccc(Br)cc1	920	50 (≈ 24.1 µg/mL)	–
N#Cc1ccc(Cn2cncc2CN2CCN(c3cccc(Cl)c3)C(=O)C2)cc1 [L-778123 FREE BASE]	–	100 (≈ 40.6 µg/mL)	IC50 [5]: 60 nM
CCCC[C@H]1CN(c2cccc(OC(F)(F)F)c2)C(=O)CN1Cc1cncn1Cc1ccc(C#N)c(Oc2ccccc2)c1	150	50 (≈ 30.2 µg/mL)	–
CCC[C@H]1CN(c2cccc(OC(F)(F)F)c2)C(=O)CN1Cc1cncn1Cc1ccc(Br)cc1	1100	6 (≈ 3.31 µg/mL)	–
N#Cc1cc(Cn2cncc2CN2CCN(c3cccc(OC(F)(F)F)c3)C(=O)C2)ccc1Oc1ccccc1	320	50 (≈ 27.4 µg/mL)	–
CCCC[C@H]1CN(c2cccc(OC(F)(F)F)c2)C(=O)CN1Cc1cncn1Cc1ccc(F)cc1	710	12 (≈ 6.05 µg/mL)	–
CCCC[C@H]1CN(c2cccc(OC(F)(F)F)c2)C(=O)CN1Cc1cncn1Cc1ccc(C(F)(F)F)cc1	280	6 (≈ 3.33 µg/mL)	–
CCCC[C@H]1CN(c2cccc(Cl)c2)C(=O)CN1Cc1cncn1Cc1ccc(C#N)cc1	100	50 (≈ 23.1 µg/mL)	–
CCCC[C@H]1CN(c2cccc(OC(F)(F)F)c2)C(=O)CN1Cc1cncn1Cc1ccc(Br)cc1	190	3 (≈ 1.7 µg/mL)	MCC at 24 h [6]: 300 µM; IC50 [5]: 2 nM; MIC [7]: 12.5 µM (≈ 7.07 µg/mL); K [3]: 750 nM; K [4]: 500 nM; Activity [8]: Active; MIC [9]: 1.5 µM (≈ 0.848 µg/mL)
CCCC[C@H]1CN(c2cccc(OC(F)(F)F)c2)C(=O)CN1Cc1cncn1Cc1ccccc1	1900	25 (≈ 12.2 µg/mL)	–
CCCC[C@H]1CN(c2cccc(OC(F)(F)F)c2)C(=O)CN1Cc1cncn1Cc1ccc(Oc2ccccc2)c(C#N)c1	210	50 (≈ 30.2 µg/mL)	–
CCCCC[C@H]1CN(c2cccc(OC(F)(F)F)c2)C(=O)CN1Cc1cncn1Cc1ccc(Br)cc1	160	3 (≈ 1.74 µg/mL)	–
CCCC[C@H]1CN(c2cccc(OC(F)(F)F)c2)C(=O)CN1Cc1cncn1Cc1ccc(Cl)cc1	260	6 (≈ 3.13 µg/mL)	–
